Assays:
[1] = molecular target: Human RET protein (RET kinase) (Homo sapiens (Human), UniProt P07949); experiment: RET kinase activity, HTRF KinEASE-TK TR-FRET assay; format: biochemical; details: inhibition of RET kinase; 9 concentrations 3200 nM~0.008 nM, 2% DMSO
Protocol: Test Example 1. Determination of the Activity of the Compound of the Present Disclosure on RET Kinase
(§1) In this method, HTRF®KinEASE-TK Tyrosine Kinase Kit (Cat. No. 62TK0PEB) of Cisbio was used to determine the degree of phosphorylation of biotinylated polypeptide substrates by time-resolved fluorescence energy transfer (TR-FRET). Human RET protein (RET kinase) was purchased from Carna bioscience (Japan, Cat. No. 08-159-5 μg).
(§2) The experimental steps are as follows: • (1) The test compound (the compound of the present disclosure, and compound 164 in WO2018017983A1 as a control) was dissolved in 100% DMSO to a final concentration of 10 mM. • (2) 4 μL of the test compound solution prepared in step (1) was dissolved with 46 μL of 100% DMSO, and the solution obtained in this step was numbered as No. 2. • (3) No. 2 solution was subjected to subsequent gradient dilution with a dilution factor of 5 times (i.e. 20 μL of 100% DMSO was added to 5 μL of the compound), a total of 9 gradients, numbered 3 to 11.
Note: No. 2 was not used for the dilution in step (4).
(§3) (Unless otherwise specified, the following steps need to be carried out on ice) • (4) The buffer provided in the kit (Cisbio, Cat. No. 62TK0PEB) was used to continuously serially dilute the solutions numbered from 3 to 11 with a dilution factor of 20 times (that is, adding 19 μL of buffer to the solutions numbered from 3 to 11). At this time, the final concentration range of the test compound in the system No. 3 to 11 was 3200 nM˜0.008 nM (9 gradients), and the final concentration of DMSO was 2%. • (5) 9 compound solutions of gradient concentration in step (4) were added into a 384-well plate in order according to their concentration at 4 μL per well, and two duplicate wells were set. • (6) 2 μL of human RET protein was added to each well and incubated on ice for 10 minutes. • (7) 2 μL of ATP (Sigma #A7699) and 2 μL of biotinylated polypeptide substrate (Cisbio, Cat. No. 62TK0PEB) were added to each well to start the phosphorylation reaction, and incubated at 37° C. for half an hour. • (8) 5 μL of anti-phosphotyrosine antibody coupled with europium compound (provided in the kit, Cat. No. 62TK0PEB) and 5 μL of streptavidin coupled with modified allophycocyanin XL665 (Cisbio, Cat. No. 62TK0PEB) were added to each well. • (9) The plate was continued to incubate for 1 hour at room temperature. After the incubation, the TF-FRET mode of the microplate reader (BMG Labtech, model: FLUOStar Omega) was adopted to measure the fluorescence intensity at an excitation wavelength of 304 nm and emission wavelengths of 615 nm and […] in each well. The ratio would be calculated automatically. • (10) By comparing the fluorescence intensity ratio in the control group, the inhibition rate of the compound at each concentration was calculated, and GraphPad Prism 5 was used to perform curve fitting with logarithmic concentration-inhibition rate to calculate the IC50 value of the compound.

KDR kinase = KDR kinase (Homo sapiens (Human), UniProt P35968); experiment: KDR control kinase activity, HTRF KinEASE-TK TR-FRET assay; format: biochemical; details: inhibition of KDR kinase; 16000 nM~0.04 nM, 2% DMSO
Sequence of KDR kinase (P35968 20-1356): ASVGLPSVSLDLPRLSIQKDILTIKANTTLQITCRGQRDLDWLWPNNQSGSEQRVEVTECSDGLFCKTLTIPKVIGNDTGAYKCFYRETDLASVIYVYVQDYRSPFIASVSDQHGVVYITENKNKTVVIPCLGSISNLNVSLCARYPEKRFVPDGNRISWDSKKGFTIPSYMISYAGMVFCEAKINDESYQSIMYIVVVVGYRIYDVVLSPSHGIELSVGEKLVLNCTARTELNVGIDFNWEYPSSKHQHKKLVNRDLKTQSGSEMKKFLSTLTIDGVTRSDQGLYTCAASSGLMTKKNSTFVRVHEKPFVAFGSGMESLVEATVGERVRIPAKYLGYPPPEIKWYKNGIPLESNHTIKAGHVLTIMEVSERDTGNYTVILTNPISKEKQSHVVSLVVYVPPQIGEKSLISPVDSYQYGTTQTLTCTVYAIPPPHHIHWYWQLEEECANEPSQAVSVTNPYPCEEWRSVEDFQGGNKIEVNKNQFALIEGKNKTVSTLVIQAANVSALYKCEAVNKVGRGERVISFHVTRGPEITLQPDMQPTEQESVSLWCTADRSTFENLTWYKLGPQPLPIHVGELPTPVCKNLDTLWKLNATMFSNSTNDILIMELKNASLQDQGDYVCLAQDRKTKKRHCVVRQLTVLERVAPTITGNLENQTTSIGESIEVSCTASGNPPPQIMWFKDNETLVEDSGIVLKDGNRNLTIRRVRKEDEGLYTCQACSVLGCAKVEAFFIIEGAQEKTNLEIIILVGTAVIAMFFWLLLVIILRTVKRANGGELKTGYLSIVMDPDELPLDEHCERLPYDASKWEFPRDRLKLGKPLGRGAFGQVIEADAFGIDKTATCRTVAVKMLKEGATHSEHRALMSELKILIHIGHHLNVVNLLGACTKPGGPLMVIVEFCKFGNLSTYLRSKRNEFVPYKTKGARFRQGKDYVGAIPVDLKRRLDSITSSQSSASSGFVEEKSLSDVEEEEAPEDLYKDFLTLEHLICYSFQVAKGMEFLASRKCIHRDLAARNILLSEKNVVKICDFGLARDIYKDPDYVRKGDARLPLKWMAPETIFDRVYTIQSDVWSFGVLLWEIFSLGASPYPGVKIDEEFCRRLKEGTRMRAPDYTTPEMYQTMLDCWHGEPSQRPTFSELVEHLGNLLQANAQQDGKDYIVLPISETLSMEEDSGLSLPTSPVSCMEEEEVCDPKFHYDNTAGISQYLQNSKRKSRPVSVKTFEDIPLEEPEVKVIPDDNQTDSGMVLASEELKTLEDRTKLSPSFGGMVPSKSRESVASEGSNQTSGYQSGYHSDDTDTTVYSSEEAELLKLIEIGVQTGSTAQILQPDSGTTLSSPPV
Protocol: as §1, §2, §3
The selected control kinase is another receptor tyrosine kinase, KDR, with similar structure to RET kinase, purchased from Carna bioscience (Japan, Cat. No. 08-191-5 μg). The step of gradient dilution was the same as that of RET kinase, and the final concentration range of the test compound in the reaction system was 16000 nM˜0.04 nM (No. 2-10 solutions were used for the gradient dilution in step 4). Other reaction conditions were the same as above, and the final concentration of DMSO was 2%. The calculation method for the IC50 value of KDR kinase inhibition by the test compound was the same as the calculation method for the IC50 value of RET kinase inhibition.

Sequence of Human RET protein (RET kinase) (P07949 29-1114): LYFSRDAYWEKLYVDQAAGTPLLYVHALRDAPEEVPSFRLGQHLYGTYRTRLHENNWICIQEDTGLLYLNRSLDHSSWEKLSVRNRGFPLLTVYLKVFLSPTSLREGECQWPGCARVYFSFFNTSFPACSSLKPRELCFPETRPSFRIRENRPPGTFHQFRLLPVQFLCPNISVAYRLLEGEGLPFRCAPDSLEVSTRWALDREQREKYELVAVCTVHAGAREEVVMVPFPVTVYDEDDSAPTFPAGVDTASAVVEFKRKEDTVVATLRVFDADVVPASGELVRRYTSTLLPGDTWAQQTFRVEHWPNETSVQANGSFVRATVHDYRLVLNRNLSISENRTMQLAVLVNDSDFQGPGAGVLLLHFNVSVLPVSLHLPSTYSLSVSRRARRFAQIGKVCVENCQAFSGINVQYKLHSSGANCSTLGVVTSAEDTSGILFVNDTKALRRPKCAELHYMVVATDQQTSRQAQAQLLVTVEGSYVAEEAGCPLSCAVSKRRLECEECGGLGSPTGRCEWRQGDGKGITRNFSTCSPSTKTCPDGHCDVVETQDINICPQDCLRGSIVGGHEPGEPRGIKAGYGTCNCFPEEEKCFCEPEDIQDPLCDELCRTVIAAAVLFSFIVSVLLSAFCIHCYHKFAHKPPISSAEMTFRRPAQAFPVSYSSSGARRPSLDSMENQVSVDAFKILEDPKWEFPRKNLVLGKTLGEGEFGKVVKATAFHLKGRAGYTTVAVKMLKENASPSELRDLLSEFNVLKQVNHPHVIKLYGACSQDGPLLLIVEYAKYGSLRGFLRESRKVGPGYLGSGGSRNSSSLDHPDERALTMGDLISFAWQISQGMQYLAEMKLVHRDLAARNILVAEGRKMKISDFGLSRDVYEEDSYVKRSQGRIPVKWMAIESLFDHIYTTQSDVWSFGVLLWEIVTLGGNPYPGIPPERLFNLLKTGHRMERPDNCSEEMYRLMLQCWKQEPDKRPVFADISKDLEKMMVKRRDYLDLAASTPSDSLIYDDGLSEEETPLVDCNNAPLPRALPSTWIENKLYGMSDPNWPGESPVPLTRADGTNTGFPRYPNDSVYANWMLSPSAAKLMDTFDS

SMILES | IC50 [1] | IC50 (KDR kinase)
Cc1cc(Nc2cc(C)[nH]n2)nc(N2CCC(C(=O)N[C@@H](C)c3ccc(-n4cc(F)cn4)nc3)CC2)c1 [Compound 164, reference compound] | 73 nM | 2300 nM
Cc1cc(Nc2cc(C)[nH]n2)nc(N2CCN(C(=O)c3ccc(-n4cc(F)cn4)nc3)CC2)n1 [Compound I-1, (6-(4-fluoro-1H-pyrazol-1-yl)pyridin-3-yl)(4-(4-methyl-6-((5-methyl-1H-pyrazol-3-yl)amino)pyrimidin-2-yl)piperazin-1-yl)methanone] | 12.5 nM | 1130 nM
Cc1cc(Nc2cc(C)[nH]n2)nc(N2CCN(C(=O)c3ccc(-n4cc(F)cn4)nc3)[C@@H](C)C2)n1 [Compound I-2, (S)-(6-(4-fluoro-1H-pyrazol-1-yl)pyridin-3-yl)(2-methyl-4-(4-methyl-6-((5-methyl-1H-pyrazol-3-yl)amino)pyrimidin-2-yl)piperazin-1-yl)methanone] | 11.8 nM | 851 nM
Cc1cc(Nc2cc(C)[nH]n2)nc(N2CC3CCC(C2)N3C(=O)c2ccc(-n3cc(F)cn3)nc2)n1 [Compound I-4, (6-(4-fluoro-1H-pyrazol-1-yl)pyridin-3-yl)(3-(4-methyl-6-((5-methyl-1H-pyrazol-3-yl)amino)pyrimidin-2-yl)-3,8-diazabicyclo [3.2.1]octane-8-yl) methanone] | 1.4 nM | 80 nM
Cc1cc(Nc2nc(N3CC4CCC(C3)N4C(=O)c3ccc(-n4cc(F)cn4)nc3)nc3ccccc23)n[nH]1 [Compound I-5, (6-(4-fluoro-1H-pyrazol-1-yl)pyridin-3-yl)(3-(4-((5-methyl-1H-pyrazol-3-yl)amino)quinazoline-2-yl)-3,8-diazabicyclo[3.2.1]octane-8-yl)methanone] | 6.2 nM | 149 nM
Cc1cc(Nc2cc(C)[nH]n2)nc(N2CC3COCC(C2)N3C(=O)c2ccc(-n3cc(F)cn3)nc2)n1 [Compound I-7, (6-(4-fluoro-1H-pyrazol-1-yl)pyridin-3-yl)(7-(4-methyl-6-((5-methyl-1H-pyrazol-3-yl)amino)pyrimidin-2-yl)-3-oxa-7,9-diazabicyclo [3.3.1]nonane-9-yl)methanone] | 10.3 nM | 391 nM
Cc1cc(Nc2cc(C)[nH]n2)nc(N2C3CCC2CN(C(=O)c2ccc(-n4cc(C#N)cn4)nc2)C3)n1 [Compound I-9] | 8.6 nM | 304 nM
Cc1cc(Nc2cc(C)[nH]n2)nc(N2CC3CCC(C2)N3C(=O)c2ccc(N3CC4C(C3)C4(C)C)nc2)n1 (centres unmarked) [Compound I-10, (6-(6,6-dimethyl-3-azabicyclo [3.1.0]hexane-3-yl)pyridin-3-yl)(3-(4-methyl-6-((5-methyl-1H-pyrazol-3-yl)amino)pyrimidin-2-yl)-3,8-diazabicyclo[3.2.1]octane-8-yl)methanone] | 7.3 nM | 1550 nM
COC(=O)c1cc(Nc2cc(C)[nH]n2)nc(N2CC3CCC(C2)N3C(=O)c2ccc(-n3cc(F)cn3)nc2)n1 [Compound I-11, Methyl 2-(8-(6-(4-fluoro-1H-pyrazol-1-yl)nicotinoyl)-3,8-diazabicyclo[3.2.1]octane-3-yl)-6-((5-methyl-1H-pyrazol-3-yl)amino)pyrimidin-4-carboxylate] | 24.7 nM | 1020 nM
Cc1cc(Nc2cc(C)[nH]n2)nc(N2CCN(C(=O)c3ccc(-n4cc(F)cn4)nc3)C3(CC3)C2)n1 [Compound I-12, (6-(4-fluoro-1H-pyrazol-1-yl)pyridin-3-yl)(7-(4-methyl-6-((5-methyl-1H-pyrazol-3-yl)amino)pyrimidin-2-yl)-4,7-diazaspiro[2.5]octane-4-yl)methanone] | 0.6 nM | 180 nM
Cc1cc(Nc2cc(C)[nH]n2)nc(N2CC3CCC(C2)N3C(=O)c2ccc(-n3cc(F)cn3)nn2)n1 [Compound I-13, (6-(4-fluoro-1H-pyrazol-1-yl)pyridazin-3-yl)(3-(4-methyl-6-((5-methyl-1H-pyrazol-3-yl)amino)pyrimidin-2-yl)-3,8-diazabicyclo[3.2.1]octane-8-yl)methanone] | 1.5 nM | 78 nM
Cc1cc(Nc2cc(C(F)(F)F)nc(N3CC4CCC(C3)N4C(=O)c3ccc(-n4cc(F)cn4)nn3)n2)n[nH]1 [Compound I-16, (6-(4-fluoro-1H-pyrazol-1-yl)pyridazin-3-yl)(3-(4-((5-methyl-1H-pyrazol-3-yl)amino)-6-(trifluoromethyl)pyrimidin-2-yl)-3,8-diazabicyclo[3.2.1]octane-8-yl)methanone] | 8 nM | 738 nM
Cc1cc(Nc2cc(C(=O)O)nc(N3CC4CCC(C3)N4C(=O)c3ccc(-n4cc(F)cn4)nc3)n2)n[nH]1 [Compound I-19, 2-(8-(6-(4-fluoro-1H-pyrazol-1-yl)nicotinoyl)-3,8-diazabicyclo[3.2.1]octane-3-yl)-6-((5-methyl-1H-pyrazol-3-yl)amino)pyrimidin-4-formic acid] | 25.6 nM | 2760 nM
Cc1cc(Nc2cc(CO)nc(N3CC4CCC(C3)N4C(=O)c3ccc(-n4cc(F)cn4)nc3)n2)n[nH]1 [Compound I-20, (6-(4-fluoro-1H-pyrazol-1-yl)pyridin-3-yl)(3-(4-(hydroxymethyl)-6-((5-methyl-1H-pyrazol-3-yl)amino)pyrimidin-2-yl)-3,8-diazabicyclo[3.2.1]octane-8-yl)methanone] | 3 nM | 1550 nM
Cc1cc(Nc2cc(C)[nH]n2)nc(N2CC3CCC(C2)N3C(=O)c2ccc(-c3cnn(C)c3)nn2)n1 [Compound I-22, (6-(1-methyl-1H-pyrazol-4-yl)pyridazin-3-yl)(3-(4-methyl-6-((5-methyl-1H-pyrazol-3-yl)amino)pyrimidin-2-yl)-3,8-diazabicyclo[3.2.1]octane-8-yl)methanone] | 2 nM | 221 nM
Cc1cc(Nc2cc(C)[nH]n2)nc(N2CC3CCC(C2)N3C(=O)c2ccc(-c3cnn(C)c3)nc2)n1 [Compound I-24, (6-(1-methyl-1H-pyrazol-4-yl)pyridin-3-yl)(3-(4-methyl-6-((5-methyl-1H-pyrazol-3-yl)amino)pyrimidin-2-yl)-3,8-diazabiciyclo [3.2.1]octane-8-yl) methanone] | 8.1 nM | 374 nM
Cc1cc(Nc2cc(C)[nH]n2)nc(N2CC3CCC(C2)N3C(=O)c2ccc(-c3ccc(F)cc3)nc2)n1 [Compound I-25, (6-(4-fluorophenyl)pyridin-3-yl)(3-(4-methyl-6-((5-methyl-1H-pyrazol-3-yl)amino)pyrimidin-2-yl)-3,8-diazabicyclo[3.2.1]octane 8-yl)methanone] | 5.6 nM | 260 nM
Cc1cc(Nc2cc(C)[nH]n2)nc(N2CC3CCC(C2)N3C(=O)c2ccc(-c3ccncc3)nc2)n1 [Compound I-28, [2,4′-bipyridin]-5-yl(3-(4-methyl-6-((5-methyl-1H-pyrazol-3-yl)amino)pyrimidin-2-yl)-3,8-diazabicyclo [3.2.1]octane-8-yl)methanone] | 2.6 nM | 467 nM
Cc1cc(Nc2cc(C)[nH]n2)nc(N2C3CCC2CN(C(=O)c2ccc(-n4cc(F)cn4)nn2)C3)c1 [Compound I-30, (6-(4-fluoro-1H-pyrazol-1-yl)pyridazin-3-yl)(8-(4-methyl-6-((5-methyl-1H-pyrazol-3-yl)amino)pyridin-2-yl)-3,8-diazabicyclo[3.2.1]octane-3-yl)methanone] | 1.8 nM | 95 nM

Source: US12234222B2, “Piperazine amide derivative, preparation method therefor, and use thereof in medicine” (ZHEJIANG HISUN PHARMACEUTICAL CO., LTD., priority 2019, dated 2025)
